Assay results: patent US20230114241A1, “METHODS OF TREATING EPILEPSY USING THE SAME” (Trevena, Inc., priority 2019, published 2023)

Experiments:
[1] = target: T1, human sphingosine-1-phosphate receptor 1 (S1P1) (Homo sapiens, UniProt P21453); assay: Inhibition of cAMP production (HTRF cAMP HiRange), S1P1 CHO-K1 cells; type: cell-based; details: for Emax: CHO-K1, efficacy normalized to maximum efficacy of fingolimod, read-out: hS1P1 CAMP SPAN; for EC50: read-out: hS1P1 CAMP pEC50 (converted)
How it was run: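 Intracellular cAMP changes read by TR-FRET (HTRF HiRange, 1 h room temperature) after 30 min compound exposure at 37 °C. Cells: overnight-plated CHO-K1 stably expressing tagged human S1P1 with EA-β-arrestin2. Responses normalized to fingolimod.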
Target sequence in this assay (P21453 whole entry): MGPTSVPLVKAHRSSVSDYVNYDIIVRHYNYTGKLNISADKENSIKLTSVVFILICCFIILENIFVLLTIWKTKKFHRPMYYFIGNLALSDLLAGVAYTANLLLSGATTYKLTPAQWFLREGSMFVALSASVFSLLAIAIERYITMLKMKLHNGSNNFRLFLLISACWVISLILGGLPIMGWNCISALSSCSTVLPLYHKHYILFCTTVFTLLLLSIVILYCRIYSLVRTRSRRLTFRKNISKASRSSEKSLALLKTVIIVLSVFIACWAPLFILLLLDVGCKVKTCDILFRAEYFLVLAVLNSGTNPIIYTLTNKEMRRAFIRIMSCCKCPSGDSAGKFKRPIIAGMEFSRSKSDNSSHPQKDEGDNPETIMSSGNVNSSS

[2] = target: T1, human sphingosine-1-phosphate receptor 1 (S1P1); assay: β-Arrestin2 recruitment assay (PathHunter), S1P1 CHO-K1 cells; type: cell-based; details: for Emax: efficacy normalized to maximum efficacy of fingolimod, read-out: hS1P1 B-arrestin2 SPAN; for EC50: β-arrestin2 recruitment, read-out: hS1P1 B-arrestin2 pEC50 (converted)
How it was run: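 Agonist-driven β-arrestin2 recruitment measured by β-galactosidase complementation after 60 min compound exposure at 37 °C and 1 h detection at room temperature. Cells: stable CHO-K1 line expressing tagged human S1P1 with EA-β-arrestin2, plated the night before. Data expressed relative to fingolimod.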
Target sequence in this assay (P21453 whole entry): as above
Target sequence in this assay (P32121 whole entry partner): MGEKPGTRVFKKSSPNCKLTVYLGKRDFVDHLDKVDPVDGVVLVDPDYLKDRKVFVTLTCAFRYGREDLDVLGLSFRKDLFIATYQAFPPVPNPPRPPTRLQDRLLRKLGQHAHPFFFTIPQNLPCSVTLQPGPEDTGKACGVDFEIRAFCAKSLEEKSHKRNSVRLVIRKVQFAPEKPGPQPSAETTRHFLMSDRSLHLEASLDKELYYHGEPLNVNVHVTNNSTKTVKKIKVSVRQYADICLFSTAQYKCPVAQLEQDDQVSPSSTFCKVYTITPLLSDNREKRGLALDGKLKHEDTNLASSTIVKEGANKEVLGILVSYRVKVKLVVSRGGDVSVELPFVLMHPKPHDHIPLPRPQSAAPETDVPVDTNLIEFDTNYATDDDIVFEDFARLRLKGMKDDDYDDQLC

[3] = inhibition of cAMP production, S1P1
[4] = inhibition of cAMP production, potency
[5] = CHO-K1, β-arrestin2 recruitment

Compound | Emax [1] [%] | EC50 [1, 3] [µM] | Emax ([2]; CHO-K1) [%] | EC50 ([2]; S1P1) [µM] | Emax ([1]; inhibition of cAMP production) [%] | EC50 [1, 4] [µM] | Emax [2, 5] [%] | EC50 ([2]; potency) [µM]
CCC1(CC)CC(=O)c2cc(-c3nc(-c4cncc(S(N)(=O)=O)c4)no3)ccc2O1 [Compound 603, 5-(5-(2,2-diethyl-4-oxochroman-6-yl)-1,2,4-oxadiazol-3-yl)pyridine-3-sulfonamide] | > 75 | < 0.316 | > 75 | < 10 | – | – | – | –
CC(C)Nc1ccc(-c2nnc(-c3ccc4oc(=O)[nH]c4c3)o2)cc1C#N [Compound 637, 5-[5-(2-oxo-2,3-dihydro-1,3-benzoxazol-5-yl)-1,3,4-oxadiazol-2-yl]-2-[(propan-2-yl)amino]benzonitrile] | > 75 | < 0.316 | > 75 | < 10 | – | – | – | –
CCC1(CC)CC(=O)c2cc(-c3nc(-c4cncc(C(N)=O)c4)no3)ccc2O1 [Compound 537, 5-(5-(2,2-diethyl-4-oxochroman-6-yl)-1,2,4-oxadiazol-3-yl)nicotinamide] | > 75 | < 0.316 | < 75 | < 10 | – | – | – | –
CC(C)n1ccc2cc(-c3nc(-c4ccccc4F)ns3)ccc21 [Compound 374, 5-[3-(2-fluorophenyl)-1,2,4-thiadiazol-5-yl]-1-(propan-2-yl)-1H-indole] | < 75 | > 0.316 | < 75 | > 10 | – | – | – | –
Cn1cnc2ccc(-c3nnc(-c4ccc(NCC(F)F)c(C#N)c4)o3)cc21 [Compound 580, 2-[(2,2-difluoro-ethyl)amino]-5-[5-(1-methyl-1H-1,3-benzodiazol-6-yl)-1,3,4-oxadiazol-2-yl]benzonitrile] | > 75 | < 0.316 | > 75 | < 10 | – | – | – | –
Cc1nc2cc(-c3nnc(-c4ccc(NCC(F)F)c(C#N)c4)o3)ccc2[nH]1 [Compound 561, 2-[(2,2-difluoro-ethyl)amino]-5-[5-(2-methyl-1H-1,3-benzodiazol-5-yl)-1,3,4-oxadiazol-2-yl]benzonitrile] | > 75 | < 0.316 | < 75 | < 10 | – | – | – | –
Cn1cnc2ccc(-c3nnc(-c4ccc(NCC(F)(F)CO)c(C#N)c4)o3)cc21 [Compound 635, 2-[(2,2-difluoro-3-hydroxypropyl)amino]-5-[5-(1-methyl-1H-1,3-benzodiazol-6-yl)-1,3,4-oxadiazol-2-yl]benzonitrile] | < 75 | < 0.316 | < 75 | < 10 | – | – | – | –
CC(C)n1ccc2cc(-c3nc(-c4cccc5c4OCCC5)no3)ccc21 [Compound 327, 3-chroman-8-yl-5-(1-isopropylindol-5-yl)-1,2,4-oxadiazole] | – | – | – | – | < 75 | > 0.316 | > 75 | < 10
CCC1(CC)CC(=O)c2cc(-c3nc(-c4ccoc4)no3)ccc2O1 [Compound 495, 2,2-diethyl-6-(3-(furan-3-yl)-1,2,4-oxadiazol-5-yl)chroman-4-one] | > 75 | < 0.316 | > 75 | < 10 | – | – | – | –
N#Cc1cc(-c2nnc(-c3ccc4c(c3)CCC(=O)N4)o2)ccc1NCC(F)F [Compound 477, 2-[(2,2-difluoroethyl)amino]-5-[5-(2-oxo-1,2,3,4-tetrahydro-quinolin-6-yl)-1,3,4-oxadiazol-2-yl]benzonitrile] | > 75 | < 0.316 | < 75 | < 10 | – | – | – | –
CCC1(CC)CC(=O)c2cc(-c3nc(-c4cncc(NC(C)=O)c4)no3)ccc2O1 [Compound 538, N-(5-(5-(2,2-diethyl-4-oxochroman-6-yl)-1,2,4-oxadiazol-3-yl)pyridin-3-yl)acetamide] | < 75 | < 0.316 | < 75 | < 10 | – | – | – | –
CCC1(CC)CC(=O)c2cc(-c3nc(-c4ccc(N(C)C)cc4)no3)ccc2O1 [Compound 60, 6-(3-(4-(dimethyl-amino)phenyl)-1,2,4-oxadiazol-5-yl)-2,2-diethylchroman-4-one] | – | – | – | – | < 75 | > 0.316 | < 75 | > 10
COc1cc(-c2noc(-c3ccc4c(c3)nnn4C3CC3)n2)ccn1 [Compound 155, 1-cyclopropyl-5-[3-(2-methoxypyridin-4-yl)-1,2,4-oxadiazol-5-yl]-1H-1,2,3-benzotriazole] | – | – | – | – | < 75 | > 0.316 | < 75 | > 10
CCC1CC(=O)c2ccc(-c3nc(-c4ccncc4)no3)cc2O1 (stereo not shown) [Compound 589, 2-ethyl-7-[3-(pyridin-4-yl)-1,2,4-oxadiazol-5-yl]-3,4-dihydro-2H-1-benzopyran-4-one] | < 75 | > 0.316 | > 75 | > 10 | – | – | – | –
O=C1CNc2ccc(-c3nc(-c4cn[nH]c4)no3)cc2N1 [Compound 645, 7-[3-(1H-pyrazol-4-yl)-1,2,4-oxadiazol-5-yl]-1,2,3,4-tetrahydro-quinoxalin-2-one] | > 75 | > 0.316 | < 75 | > 10 | – | – | – | –
CC(C)n1nnc2cc(-c3nc(-c4sccc4Cl)co3)ccc21 [Compound 463, 5-[4-(3-chlorothiophen-2-yl)-1,3-oxazol-2-yl]-1-(propan-2-yl)-1H-1,2,3-benzotriazole] | > 75 | < 0.316 | > 75 | < 10 | – | – | – | –
N#Cc1cc(-c2nnc(-c3ccc4[nH]c(=O)oc4c3)o2)ccc1NCC1CC1 [Compound 486, 2-[(cyclopropyl-methyl)amino]-5-[5-(2-oxo-2,3-dihydro-1,3-benzoxazol-6-yl)-1,3,4-oxadiazol-2-yl]benzonitrile] | < 75 | < 0.316 | > 75 | > 10 | – | – | – | –
CCCC1CC(=O)c2ccc(-c3nc(-c4cccnc4)no3)cc2O1 (stereo not shown) [Compound 630, 2-propyl-7-[3-(pyridin-3-yl)-1,2,4-oxadiazol-5-yl]-3,4-dihydro-2H-1-benzopyran-4-one] | < 75 | > 0.316 | < 75 | > 10 | – | – | – | –
CC(C)n1nnc2cc(-c3nc(-c4cncnc4)no3)ccc21 [Compound 249, 1-(propan-2-yl)-5-[3-(pyrimidin-5-yl)-1,2,4-oxadiazol-5-yl]-1H-1,2,3-benzotriazole] | – | – | – | – | > 75 | > 0.316 | < 75 | > 10
CC(C)c1ccc(-c2nc(-c3ccc4c(c3)nnn4C(C)C)no2)cn1 [Compound 25, 3-(1-isopropyl-1H-benzo[d][1,2,3]triazol-5-yl)-5-(6-isopropyl-pyridin-3-yl)-1,2,4-oxadiazole] | – | – | – | – | < 75 | > 0.316 | < 75 | > 10
Cn1cnc2cc(-c3nnc(-c4ccc(NCC(F)F)c(C#N)c4)o3)ccc21 [Compound 573, 2-[(2,2-difluoro-ethyl)amino]-5-[5-(1-methyl-1H-1,3-benzodiazol-5-yl)-1,3,4-oxadiazol-2-yl]benzonitrile] | < 75 | > 0.316 | < 75 | > 10 | – | – | – | –
CCC1(CC)CC(=O)c2cc(-c3nc(-c4ccc[nH]4)no3)ccc2O1 [Compound 464, 6-(3-(1H-pyrrol-2-yl)-1,2,4-oxadiazol-5-yl)-2,2-diethylchroman-4-one] | < 75 | < 0.316 | < 75 | > 10 | – | – | – | –
CCCC1(CCC)CC(=O)c2cc(-c3nc(-c4cccnc4)no3)ccc2O1 [Compound 218, 2,2-dipropyl-6-[3-(pyridin-3-yl)-1,2,4-oxadiazol-5-yl]-3,4-dihydro-2H-1-benzopyran-4-one] | – | – | – | – | > 75 | > 0.316 | > 75 | > 10
COc1ccccc1-c1nc(-c2ccc3c(ccn3C(C)C)c2)ns1 [Compound 375, 5-[5-(2-methoxy-phenyl)-1,2,4-thiadiazol-3-yl]-1-(propan-2-yl)-1H-indole] | > 75 | < 0.316 | < 75 | < 10 | – | – | – | –
COc1ccccc1-c1noc(-c2ccc3[nH]ccc3c2)n1 [Compound 368, 5-(1H-indol-5-yl)-3-(2-methoxyphenyl)-1,2,4-oxadiazole] | – | – | – | – | < 75 | > 0.316 | < 75 | > 10
O=C1CC2(CCCC2)Oc2ccc(-c3nc(-c4cccnc4)no3)cc21 [Compound 298, 6-[3-(pyridin-3-yl)-1,2,4-oxadiazol-5-yl]-3,4-dihydrospiro[1-benzopyran-2,1′-cyclopentane]-4-one] | – | – | – | – | > 75 | > 0.316 | < 75 | < 10
Cc1cccc2oc(-c3ccc4c(c3)nnn4CC(C)C)nc12 [Compound 447, 2-(1-isobutyl-1H-benzo[d][1,2,3]triazol-5-yl)-4-methyl-benzo[d]oxazole] | > 75 | < 0.316 | < 75 | < 10 | – | – | – | –
COc1cccc(-c2nc(-c3ccc4c(ccn4C(C)C)c3)ns2)c1 [Compound 366, 5-[5-(3-methoxyphenyl)-1,2,4-thiadiazol-3-yl]-1-(propan-2-yl)-1H-indole] | – | – | – | – | < 75 | > 0.316 | < 75 | > 10
